Experimental data from US9914722B2, “Compounds for treating spinal muscular atrophy” (PTC Therapeutics Inc., priority 2012, dated 2018).

Assays:
[1] = test system: SMN2 full length and Δ7 mRNA; assay: Endogenous SMN2 mRNA end-point semi-quantitative RT-PCR splicing assay in cultured cells; assay type: cell-based, human; conditions: 24 hr, FIG. 5; for SMN2 FL mRNA (gel band) / SMN2 Δ7 mRNA (gel band): GM03813 Type 1 SMA patient fibroblasts, increasing concentrations; for SMN2 alternative splicing: Type 1 SMA patient fibroblasts, rising concentrations
Procedure: Endogenous SMN2 mRNA End-Point Semi-Quantitative RT-PCR Splicing Assay in Cultured Cells
The endpoint reverse transcription-PCR splicing assay is used to visualize and quantify the levels of the SMN2 full length and Δ7 mRNA in primary cells and cell lines containing the SMN2 gene treated with a test compound.
Protocol. GM03813 SMA patient cells (5,000 cells/well) are seeded in 200 μL of cell culture medium (DMEM plus 10% FBS) in 96-well flat-bottom plates and the plate is immediately swirled to ensure proper dispersal of cells, forming an even monolayer of cells. Cells are allowed to attach for at least 4-6 hrs. Test compounds are serially diluted 3.16-fold in 100% DMSO to generate a 7-point concentration curve. A solution of test compound (1 μL, 200× in DMSO) is added to each test well and 1 μL DMSO is added to each control well. The plate is incu bated for 24 hrs in a cell culture incubator (37° C., 5% CO2, 100% relative humidity). The cells are then lysed in Cells-To-Ct lysis buffer and the lysate is stored at −80° C.
SMN FL and Δ7 mRNA are identified using the following primers in Table 6. These primers hybridize to a nucleotide sequence in exon 6 (SMN Forward C, SEQ ID NO. 11) (nucleotide 43 to nucleotide 63) and exon 8 (SMN Reverse C, SEQ ID NO. 12) (nucleotide 51 to nucleotide 73) common to human SMN1 and SMN2 mRNA. Since the SMA patient cells used in Example 4 contain only the SMN2 gene, RT-PCR can visualize and quantify only SMN2 full-length and SMN2 Δ7 mRNA.
To synthesize cDNA, 5 μL of lysate, 4 μL of 5× iScript reaction mix, 1 μL of reverse transcriptase, and 10 μL of water are combined and incubated 5 min at 25° C. followed by 30 min at 42° C., followed by 5 min at 85° C. The cDNA solution is stored at −20° C.
To perform endpoint PCR, 5 μL of cDNA, 0.2 μL of 100 μM forward primer, 0.2 μL of 100 μM reverse primer, and 22.5 μL of polymerase super mix are combined in a 96 well semiskirted PCR plate. PCR is carried out at the following temperatures for the indicated time: Step 1: 94° C. (2 min), Step 2: 94° C. (30 sec), Step 3: 55° C. (30 sec), Step 4: 68° C. (1 min), then repeat Steps 2 to 4 for a total of 33 cycles, then hold at 4° C.
10 μL of each PCR sample is electrophoretically separated on a 2% agarose E-gel for 14 minutes stained with double-stranded DNA (dsDNA) staining reagents (e.g., ethidium bromide) and visualized using a gel imager.

[2] = test system: full length SMN2 minigene mRNA containing SMN2 exon 7 (SMN2-A minigene); assay: SMN2 minigene mRNA splicing RT-qPCR assay in cultured cells; assay type: cell-based, human; conditions: for SMN2 minigene FL mRNA relative to vehicle / SMN2 minigene alternative splicing / exon 7 inclusion: HEK293H cells with SMN2-A minigene, 24 hr, RT-qPCR, FIG. 3; for EC (1.5-fold): Homo sapiens, HEK293-H, HEK293H cells stably transfected with SMN2-A minigene, 24 hours, 7-point concentration curve, concentration giving 1.5-fold SMN2 full length mRNA vs vehicle, read-out: EC1.5x for production of full length SMN2 mRNA
In short: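 HEK293H cells stably carrying the SMN2-A minigene were treated 24 h at 37 °C with a 7-point, 3.16-fold test compound series, in duplicate. Multiplex RT-qPCR measured exon 7-containing minigene FL mRNA, normalized to GAPDH and expressed relative to vehicle; EC1.5x is the concentration giving 1.5-fold FL mRNA.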

SMILES	SMN2 FL mRNA (gel band) [1]	SMN2 Δ7 mRNA (gel band) [1]	SMN2 alternative splicing [1]	SMN2 minigene FL mRNA relative to vehicle [2]	SMN2 minigene alternative splicing / exon 7 inclusion [2]	EC (1.5-fold) [2]
C[C@@H]1CN(c2ccc3oc(-c4cn5ccccc5n4)cc(=O)c3c2)C[C@H](C)N1 [Cpd 17, 6-[(3R,5S)-3,5-dimethylpiperazin-1-yl]-2-(imidazo[1,2-a]pyridin-2-yl)-4H-chromen-4-one]	progressively more SMN2 FL mRNA	less SMN2 Δ7 mRNA	correction of SMN2 alternative splicing	increased SMN2 minigene FL mRNA at low concentrations	correction of SMN2 minigene alternative splicing	1 to 3 µM
COc1ccc(-c2cc(=O)c3cc(N4CCN[C@@H](C)C4)ccc3o2)cc1F [Cpd 38, 2-(3-fluoro-4-methoxyphenyl)-6-[(3S)-3-methylpiperazin-1-yl]-4H-chromen-4-one]	progressively more SMN2 FL mRNA	less SMN2 Δ7 mRNA	correction of SMN2 alternative splicing	increased SMN2 minigene FL mRNA at low concentrations	correction of SMN2 minigene alternative splicing	≤ 0.1 µM
